Tested on: P12-Ichikawa
Assay: cell viability relative to DMSO control; higher = less cytotoxic
Details: 48 h
In short: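 Viability is expressed as a percentage of DMSO wells within each plate, and cell-free wells serve as background. Seeding densities in the 1536-well plates (5 μl) were 500 cells/well for NOMO1 or SEM leukemia cells and 1000 cells/well for P12-Ichikawa. Each line was adapted for at least four passages in each medium. Library compounds in DMSO were pin-dosed at 47 μM to 0.79 nM (11 points, threefold), and CellTiter-Glo One luminescence was read after 48 h at 37°C.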

[1] = HPLM + 10% dialyzed FBS, 0.000781 µM
[2] = HPLM + 10% dialyzed FBS, 0.00234 µM
[3] = HPLM + 10% dialyzed FBS, 0.00702 µM
[4] = HPLM + 10% dialyzed FBS, 0.0211 µM
[5] = HPLM + 10% dialyzed FBS, 0.0632 µM
[6] = HPLM + 10% dialyzed FBS, 0.19 µM
[7] = HPLM + 10% dialyzed FBS, 0.569 µM
[8] = HPLM + 10% dialyzed FBS, 1.71 µM
[9] = HPLM + 10% dialyzed FBS, 5.12 µM
[10] = HPLM + 10% dialyzed FBS, 15.4 µM
[11] = HPLM + 10% dialyzed FBS, 46.1 µM
[12] = RPMI 5 mM glucose + 10% dialyzed FBS, 0.000781 µM
[13] = RPMI 5 mM glucose + 10% dialyzed FBS, 0.00234 µM
[14] = RPMI 5 mM glucose + 10% dialyzed FBS, 0.00702 µM
[15] = RPMI 5 mM glucose + 10% dialyzed FBS, 0.0211 µM
[16] = RPMI 5 mM glucose + 10% dialyzed FBS, 0.0632 µM
[17] = RPMI 5 mM glucose + 10% dialyzed FBS, 0.19 µM
[18] = RPMI 5 mM glucose + 10% dialyzed FBS, 0.569 µM
[19] = RPMI 5 mM glucose + 10% dialyzed FBS, 1.71 µM
[20] = RPMI 5 mM glucose + 10% dialyzed FBS, 5.12 µM
[21] = RPMI 5 mM glucose + 10% dialyzed FBS, 15.4 µM
[22] = RPMI 5 mM glucose + 10% dialyzed FBS, 46.1 µM

Structure (SMILES)	cell viability [1] [%]	cell viability [2] [%]	cell viability [3] [%]	cell viability [4] [%]	cell viability [5] [%]	cell viability [6] [%]	cell viability [7] [%]	cell viability [8] [%]	cell viability [9] [%]	cell viability [10] [%]	cell viability [11] [%]	cell viability [12] [%]	cell viability [13] [%]	cell viability [14] [%]	cell viability [15] [%]	cell viability [16] [%]	cell viability [17] [%]	cell viability [18] [%]	cell viability [19] [%]	cell viability [20] [%]	cell viability [21] [%]	cell viability [22] [%]
CCCCc1ccc(N[S+](=O)([O-])c2ccc(C)c(C(=O)N3CCN(c4cccc(C)c4C)CC3)c2)cc1	125	125	122	96.6	118	125	121	122	120	105	106	–	–	–	–	–	–	–	–	–	–	–
COc1ccc2c(c1)CC[C@@H](CN(C)CC(=O)O)[C@H]2c1ccccc1	–	–	–	–	–	–	–	–	–	–	–	116	122	129	119	119	116	119	105	54.9	28.8	29.1
CC(C)C1=N[N](C\2=C1C(=O)N\C(=N2)CC3=CC=C(OCCO)C=C3)C4=C(Cl)C=CC=C4Cl	116	116	109	108	107	44	10.7	5.9	6.83	6.62	5.21	118	129	117	124	127	31.8	10.9	5.95	6.23	6.55	3.77
CCCCc1oc2ccccc2c1C(=O)c1cc(I)c(OCCN(CC)CC)c(I)c1	114	114	113	109	115	102	110	104	104	104	91.1	106	114	115	114	111	107	116	106	103	103	94.5
CC1CCN(c2cc(N3CCN(C)CC3)ccc2NC(=O)c2cc(C#N)c[nH]2)CC1	–	–	–	–	–	–	–	–	–	–	–	124	119	122	126	133	119	115	121	106	106	99.9
